Reference: ChEMBL document CHEMBL1649134, “Occurrence of efflux mechanism and cephalosporinase variant in a population of Enterobacter aerogenes and Klebsiella pneumoniae isolates producing extended-spectrum beta-lactamases” (2009)

Experiments:
Assay type in all cases: functional
Klebsiella pneumoniae [1] = assay: Antimicrobial activity against multidrug resistant Klebsiella pneumoniae isolate 7 by broth dilution method in presence of 26.3 mg/L efflux pump inhibitor phenylalanine-arginine-beta-naphthylamide
Klebsiella pneumoniae [2] = assay: Antimicrobial activity against multidrug resistant Klebsiella pneumoniae ATCC 11296 by broth dilution method
Klebsiella aerogenes [3] = assay: Antimicrobial activity against multidrug resistant Enterobacter aerogenes ATCC 15038 by broth dilution method
Klebsiella aerogenes [4] = assay: Antimicrobial activity against multidrug resistant Enterobacter aerogenes isolate 22 by broth dilution method in presence of 26.3 mg/L efflux pump inhibitor phenylalanine-arginine-beta-naphthylamide
Klebsiella aerogenes [5] = assay: Antimicrobial activity against multidrug resistant Enterobacter aerogenes isolate 3 by broth dilution method
Klebsiella pneumoniae [6] = assay: Antimicrobial activity against multidrug resistant Klebsiella pneumoniae isolate 12 by broth dilution method in presence of 26.3 mg/L efflux pump inhibitor phenylalanine-arginine-beta-naphthylamide
Klebsiella aerogenes [7] = assay: Antimicrobial activity against multidrug resistant Enterobacter aerogenes isolate 13 by broth dilution method
Klebsiella pneumoniae [8] = assay: Antimicrobial activity against multidrug resistant Klebsiella pneumoniae isolate 7 by broth dilution method
Klebsiella aerogenes [9] = assay: Antimicrobial activity against multidrug resistant Enterobacter aerogenes isolate 1 by broth dilution method in presence of 26.3 mg/L efflux pump inhibitor phenylalanine-arginine-beta-naphthylamide
Klebsiella pneumoniae [10] = assay: Antimicrobial activity against multidrug resistant Klebsiella pneumoniae isolate 13 by broth dilution method
Klebsiella aerogenes [11] = assay: Antimicrobial activity against multidrug resistant Enterobacter aerogenes isolate 27 by broth dilution method in presence of 26.3 mg/L efflux pump inhibitor phenylalanine-arginine-beta-naphthylamide
Klebsiella aerogenes [12] = assay: Antimicrobial activity against multidrug resistant Enterobacter aerogenes isolate 22 by broth dilution method
Klebsiella aerogenes [13] = assay: Antimicrobial activity against multidrug resistant Enterobacter aerogenes isolate 2 by broth dilution method
Klebsiella aerogenes [14] = assay: Antimicrobial activity against multidrug resistant Enterobacter aerogenes isolate 16 by broth dilution method
Klebsiella aerogenes [15] = assay: Antimicrobial activity against multidrug resistant Enterobacter aerogenes isolate 14 by broth dilution method
Klebsiella pneumoniae [16] = assay: Antimicrobial activity against multidrug resistant Klebsiella pneumoniae isolate 10 by broth dilution method
Klebsiella pneumoniae [17] = assay: Antimicrobial activity against multidrug resistant Klebsiella pneumoniae isolate 3 by broth dilution method
Klebsiella aerogenes [18] = assay: Antimicrobial activity against multidrug resistant Enterobacter aerogenes isolate 21 by broth dilution method
Klebsiella aerogenes [19] = assay: Antimicrobial activity against multidrug resistant Enterobacter aerogenes isolate 5 by broth dilution method in presence of 26.3 mg/L efflux pump inhibitor phenylalanine-arginine-beta-naphthylamide
Klebsiella aerogenes [20] = assay: Antimicrobial activity against multidrug resistant Enterobacter aerogenes isolate 6 by broth dilution method
Klebsiella aerogenes [21] = assay: Antimicrobial activity against multidrug resistant Enterobacter aerogenes isolate 26 by broth dilution method in presence of 26.3 mg/L efflux pump inhibitor phenylalanine-arginine-beta-naphthylamide
Klebsiella aerogenes [22] = assay: Antimicrobial activity against multidrug resistant Enterobacter aerogenes isolate 27 by broth dilution method
Klebsiella aerogenes [23] = assay: Antimicrobial activity against multidrug resistant Enterobacter aerogenes isolate 10 by broth dilution method in presence of 26.3 mg/L efflux pump inhibitor phenylalanine-arginine-beta-naphthylamide
Klebsiella aerogenes [24] = assay: Antimicrobial activity against multidrug resistant Enterobacter aerogenes isolate 15 by broth dilution method in presence of 26.3 mg/L efflux pump inhibitor phenylalanine-arginine-beta-naphthylamide
Klebsiella pneumoniae [25] = assay: Antimicrobial activity against multidrug resistant Klebsiella pneumoniae isolate 3 by broth dilution method in presence of 26.3 mg/L efflux pump inhibitor phenylalanine-arginine-beta-naphthylamide
Klebsiella aerogenes [26] = assay: Antimicrobial activity against multidrug resistant Enterobacter aerogenes isolate 6 by broth dilution method in presence of 26.3 mg/L efflux pump inhibitor phenylalanine-arginine-beta-naphthylamide
Klebsiella aerogenes [27] = assay: Antimicrobial activity against multidrug resistant Enterobacter aerogenes isolate 7 by broth dilution method
Klebsiella pneumoniae [28] = assay: Antimicrobial activity against multidrug resistant Klebsiella pneumoniae ATCC 11296 by broth dilution method in presence of 26.3 mg/L efflux pump inhibitor phenylalanine-arginine-beta-naphthylamide
Klebsiella aerogenes [29] = assay: Antimicrobial activity against multidrug resistant Enterobacter aerogenes isolate 15 by broth dilution method
Klebsiella pneumoniae [30] = assay: Antimicrobial activity against multidrug resistant Klebsiella pneumoniae isolate 2 by broth dilution method
Klebsiella pneumoniae [31] = assay: Antimicrobial activity against multidrug resistant Klebsiella pneumoniae isolate 10 by broth dilution method in presence of 26.3 mg/L efflux pump inhibitor phenylalanine-arginine-beta-naphthylamide
Klebsiella pneumoniae [32] = assay: Antimicrobial activity against multidrug resistant Klebsiella pneumoniae isolate 6 by broth dilution method
Klebsiella aerogenes [33] = assay: Antimicrobial activity against multidrug resistant Enterobacter aerogenes isolate 2 by broth dilution method in presence of 26.3 mg/L efflux pump inhibitor phenylalanine-arginine-beta-naphthylamide
Klebsiella aerogenes [34] = assay: Antimicrobial activity against multidrug resistant Enterobacter aerogenes isolate 9 by broth dilution method
Klebsiella aerogenes [35] = assay: Antimicrobial activity against multidrug resistant Enterobacter aerogenes isolate 10 by broth dilution method
Klebsiella aerogenes [36] = assay: Antimicrobial activity against multidrug resistant Enterobacter aerogenes isolate 26 by broth dilution method
Klebsiella aerogenes [37] = assay: Antimicrobial activity against multidrug resistant Enterobacter aerogenes isolate 1 by broth dilution method
Klebsiella aerogenes [38] = assay: Antimicrobial activity against multidrug resistant Enterobacter aerogenes isolate 21 by broth dilution method in presence of 26.3 mg/L efflux pump inhibitor phenylalanine-arginine-beta-naphthylamide
Klebsiella pneumoniae [39] = assay: Antimicrobial activity against multidrug resistant Klebsiella pneumoniae isolate 2 by broth dilution method in presence of 26.3 mg/L efflux pump inhibitor phenylalanine-arginine-beta-naphthylamide
Klebsiella pneumoniae [40] = assay: Antimicrobial activity against multidrug resistant Klebsiella pneumoniae isolate 1 by broth dilution method in presence of 26.3 mg/L efflux pump inhibitor phenylalanine-arginine-beta-naphthylamide
Klebsiella aerogenes [41] = assay: Antimicrobial activity against multidrug resistant Enterobacter aerogenes isolate 24 by broth dilution method
Klebsiella pneumoniae [42] = assay: Antimicrobial activity against multidrug resistant Klebsiella pneumoniae isolate 6 by broth dilution method in presence of 26.3 mg/L efflux pump inhibitor phenylalanine-arginine-beta-naphthylamide

Measured: MIC

C[C@@H]1CN(c2c(F)c(N)c3c(=O)c(C(=O)O)cn(C4CC4)c3c2F)C[C@H](C)N1 [SPARFLOXACIN]
16 µg/mL: Klebsiella aerogenes [19]
4 µg/mL: Klebsiella aerogenes [21] | Klebsiella pneumoniae [25]
64 µg/mL: Klebsiella aerogenes [14]
0.25 µg/mL: Klebsiella pneumoniae [8] | Klebsiella pneumoniae [40]
2.1 µg/mL: Klebsiella pneumoniae [10]
2 µg/mL: Klebsiella pneumoniae [30] | Klebsiella pneumoniae [31]
512 µg/mL: Klebsiella aerogenes [18]
32 µg/mL: Klebsiella aerogenes [36] | Klebsiella aerogenes [38]
0.125 µg/mL: Klebsiella aerogenes [20]
8 µg/mL: Klebsiella aerogenes [4] | Klebsiella aerogenes [9] | Klebsiella aerogenes [11] | Klebsiella pneumoniae [16] | Klebsiella pneumoniae [17] | Klebsiella aerogenes [23] | Klebsiella aerogenes [24] | Klebsiella aerogenes [33]
256 µg/mL: Klebsiella aerogenes [7] | Klebsiella aerogenes [12] | Klebsiella aerogenes [22] | Klebsiella aerogenes [35] | Klebsiella aerogenes [37] | Klebsiella aerogenes [41]
128 µg/mL: Klebsiella aerogenes [5] | Klebsiella aerogenes [13] | Klebsiella aerogenes [15] | Klebsiella aerogenes [27] | Klebsiella aerogenes [29] | Klebsiella aerogenes [34]
≤ 0.06 µg/mL: all other assays above

O=C(N[C@H](CO)[C@H](O)c1ccc([N+](=O)[O-])cc1)C(Cl)Cl [CHLORAMPHENICOL]
32 µg/mL: Klebsiella pneumoniae [8] | Klebsiella aerogenes [21] | Klebsiella pneumoniae [32]
512 µg/mL: Klebsiella aerogenes [13] | Klebsiella aerogenes [14] | Klebsiella aerogenes [15] | Klebsiella aerogenes [29] | Klebsiella aerogenes [41]
4 µg/mL: Klebsiella pneumoniae [2] | Klebsiella pneumoniae [16] | Klebsiella pneumoniae [17] | Klebsiella pneumoniae [25] | Klebsiella aerogenes [26]
8 µg/mL: Klebsiella pneumoniae [40]
128 µg/mL: Klebsiella aerogenes [4] | Klebsiella aerogenes [9] | Klebsiella pneumoniae [10] | Klebsiella aerogenes [11] | Klebsiella aerogenes [19] | Klebsiella aerogenes [23] | Klebsiella aerogenes [38]
256 µg/mL: Klebsiella aerogenes [20] | Klebsiella pneumoniae [30] | Klebsiella aerogenes [34] | Klebsiella aerogenes [36]
2 µg/mL: Klebsiella pneumoniae [1] | Klebsiella aerogenes [3] | Klebsiella pneumoniae [6] | Klebsiella pneumoniae [28] | Klebsiella pneumoniae [31] | Klebsiella pneumoniae [42]
64 µg/mL: Klebsiella aerogenes [24] | Klebsiella aerogenes [33] | Klebsiella pneumoniae [39]
1020 µg/mL: all other assays above
